Test results as given in patent publication US20110166105A1, “ANTIMICROBIAL WASH AND CARRIER SOLUTIONS AND USES THEREOF” (TEVA ANIMAL HEALTH, INC., priority 2002, published 2011).

Experiment: Antimicrobial preservative effectiveness (APE), USP 25 test 51
Type: cell-based
Settings: pH 8.5
Method: Various concentrations of benzyl alcohol were tested for antimicrobial preservative effectiveness (APE) using the USP 25 test 51 (U.S. Pharmacopeia 25, U.S. Pharmacopeia, MD (2001)). The formulations below are based on the formulation designated as 940-16 C (with a slightly higher pH) in Example 2 above with varying benzyl alcohol concentrations. The table below summarizes the results of these studies. Antimicrobial activity can be measured by any standard assay known to those of skill in the art (e.g., USP 25 antimicrobial preservative effectiveness (APE) test 51 (U.S. Pharmacopeia 25, U.S. Pharmacopeia, MD (2001)).

In the case of `OCc1ccccc1` [benzyl alcohol], the “USP antimicrobial preservative requirement” value is reported as “meets the USP antimicrobial preservative requirement”.
